Values after ≈ are worked out from the molar mass of the structure shown.

In the assay the test system is Mycobacterium tuberculosis. Put plainly: Antimycobacterial activity against Mycobacterium tuberculosis H37Rv by agar dilution method. It counts as functional. In general terms: In agar dilution the substance is mixed into plates at graded concentrations.
In turn, `COc1ccc([C@H]2[C@@H]3CSCN3[C@@]3(C(=O)Nc4ccccc43)[C@@]23Cc2ccccc2C3=O)cc1` had an MIC of over 53.4 µg/mL.
To `CC[C@@H](CO)NCCN[C@@H](CC)CO` [ETHAMBUTOL] belongs 7.6 µg/mL (≈ 37.2 µM); to `O=C1Nc2ccccc2[C@]12N1CSC[C@H]1[C@H](c1ccc(F)cc1)[C@]21Cc2ccccc2C1=O`, 13.7 µg/mL (≈ 30 µM).
The result for `O=C1Nc2ccccc2[C@]12N1CSC[C@H]1[C@H](c1ccc([N+](=O)[O-])cc1)[C@]21Cc2ccccc2C1=O` reads 12.9 µg/mL (≈ 26.7 µM); that for `O=C1Nc2ccc(Cl)cc2[C@]12N1CSC[C@H]1[C@H](c1cccc(Cl)c1Cl)[C@]21Cc2ccccc2C1=O`, 5.8 µg/mL (≈ 10.7 µM).
To `NNC(=O)c1ccncc1` [ISONIAZID] belongs 0.4 µg/mL (≈ 2.92 µM); to `Cc1ccccc1[C@H]1[C@@H]2CSCN2[C@@]2(C(=O)Nc3ccc(Cl)cc32)[C@@]12Cc1ccccc1C2=O`, 25.7 µg/mL (≈ 52.8 µM); to `Cc1ccc([C@H]2[C@@H]3CSCN3[C@@]3(C(=O)Nc4ccccc43)[C@@]23Cc2ccccc2C3=O)cc1`, over 55.2 µg/mL.
In the case of `O=C1Nc2ccc(Cl)cc2[C@]12N1CSC[C@H]1[C@H](c1cccs1)[C@]21Cc2ccccc2C1=O`, the MIC was found to be 52.2 µg/mL (≈ 109 µM).
On to `O=C1Nc2ccc([N+](=O)[O-])cc2[C@]12N1CSC[C@H]1[C@H](c1cccc(Cl)c1Cl)[C@]21Cc2ccccc2C1=O`, for which the minimum inhibitory concentration (MIC) was 2.8 µg/mL (≈ 5.07 µM).
The compound `COc1ccc([C@H]2[C@@H]3CSCN3[C@@]3(C(=O)Nc4ccc([N+](=O)[O-])cc43)[C@@]23Cc2ccccc2C3=O)cc1` showed an MIC of 24.3 µg/mL (≈ 47.3 µM).
The result for `O=C1Nc2ccc(Cl)cc2[C@]12N1CSC[C@H]1[C@H](c1ccc(F)cc1)[C@]21Cc2ccccc2C1=O` reads 12.7 µg/mL (≈ 25.9 µM); that for `Cc1ccc([C@H]2[C@@H]3CSCN3[C@@]3(C(=O)Nc4ccc(Cl)cc43)[C@@]23Cc2ccccc2C3=O)cc1`, 51.3 µg/mL (≈ 105 µM); that for `O=C1Nc2ccc([N+](=O)[O-])cc2[C@]12N1CSC[C@H]1[C@H](c1ccc(Br)cc1)[C@]21Cc2ccccc2C1=O`, 11.1 µg/mL (≈ 19.7 µM).
The result for `O=C1Nc2ccc(Cl)cc2[C@]12N1CSC[C@H]1[C@H](c1ccc(Br)cc1)[C@]21Cc2ccccc2C1=O` reads 11.3 µg/mL (≈ 20.5 µM); that for `Cc1ccccc1[C@H]1[C@@H]2CSCN2[C@@]2(C(=O)Nc3ccc([N+](=O)[O-])cc32)[C@@]12Cc1ccccc1C2=O`, 25.1 µg/mL (≈ 50.4 µM).
The result for `Cc1ccccc1[C@H]1[C@@H]2CSCN2[C@@]2(C(=O)Nc3ccccc32)[C@@]12Cc1ccccc1C2=O` reads over 55.2 µg/mL; that for `O=C1Nc2ccc(Cl)cc2[C@]12N1CSC[C@H]1[C@H](c1ccccc1Cl)[C@]21Cc2ccccc2C1=O`, 12.3 µg/mL (≈ 24.2 µM).
As to `Cc1ccc([C@H]2[C@@H]3CSCN3[C@@]3(C(=O)Nc4ccc([N+](=O)[O-])cc43)[C@@]23Cc2ccccc2C3=O)cc1`, the MIC was determined as 25.1 µg/mL (≈ 50.4 µM).
The result for `O=C1Nc2ccc(Cl)cc2[C@]12N1CSC[C@H]1[C@H](c1ccc([N+](=O)[O-])cc1)[C@]21Cc2ccccc2C1=O` reads 12.1 µg/mL (≈ 23.4 µM); that for `O=C1Nc2ccc(Cl)cc2[C@]12N1CSC[C@H]1[C@H](c1ccc(Cl)cc1)[C@]21Cc2ccccc2C1=O`, 24.6 µg/mL (≈ 48.5 µM).
The result for `O=C1Nc2ccccc2[C@]12N1CSC[C@H]1[C@H](c1ccc(Br)cc1)[C@]21Cc2ccccc2C1=O` reads 24.2 µg/mL (≈ 46.8 µM).
To `O=C1Nc2ccccc2[C@]12N1CSC[C@H]1[C@H](c1cccc(Cl)c1Cl)[C@]21Cc2ccccc2C1=O` belongs 12.3 µg/mL (≈ 24.2 µM); to `O=C1Nc2ccccc2[C@]12N1CSC[C@H]1[C@H](c1cccs1)[C@]21Cc2ccccc2C1=O`, 56.2 µg/mL (≈ 126 µM); to `O=C1Nc2ccc([N+](=O)[O-])cc2[C@]12N1CSC[C@H]1[C@H](c1ccc(Cl)cc1)[C@]21Cc2ccccc2C1=O`, 24.1 µg/mL (≈ 46.5 µM).
`COc1ccc([C@H]2[C@@H]3CSCN3[C@@]3(C(=O)Nc4ccc(Cl)cc43)[C@@]23Cc2ccccc2C3=O)cc1` came in with an MIC of over 49.7 µg/mL.
The result for `O=C1Nc2ccc([N+](=O)[O-])cc2[C@]12N1CSC[C@H]1[C@H](c1ccc(F)cc1)[C@]21Cc2ccccc2C1=O` reads 3.1 µg/mL (≈ 6.18 µM).
`O=C1Nc2ccc([N+](=O)[O-])cc2[C@]12N1CSC[C@H]1[C@H](c1ccc([N+](=O)[O-])cc1)[C@]21Cc2ccccc2C1=O` yielded an MIC of 5.9 µg/mL (≈ 11.2 µM).
To `CO[C@H]1/C=C/O[C@@]2(C)Oc3c(C)c(O)c4c(O)c(c(/C=N/N5CCN(C)CC5)c(O)c4c3C2=O)NC(=O)/C(C)=C\C=C\[C@H](C)[C@H](O)[C@@H](C)[C@@H](O)[C@@H](C)[C@H](OC(C)=O)[C@@H]1C` [RIFAMPIN] belongs 0.1 µg/mL (≈ 0.122 µM); to `O=C1Nc2ccc([N+](=O)[O-])cc2[C@]12N1CSC[C@H]1[C@H](c1ccccc1Cl)[C@]21Cc2ccccc2C1=O`, 12.1 µg/mL (≈ 23.4 µM); to `O=C1Nc2ccccc2[C@]12N1CSC[C@H]1[C@H](c1ccccc1Cl)[C@]21Cc2ccccc2C1=O`, 26.4 µg/mL (≈ 55.8 µM).
The result for `O=C1Nc2ccccc2[C@]12N1CSC[C@H]1[C@H](c1ccc(Cl)cc1)[C@]21Cc2ccccc2C1=O` reads 52.9 µg/mL (≈ 112 µM).

Usually MIC stands for the lowest concentration found to suppress growth. Read a high MIC as a less susceptible organism.

(Values after ChEMBL document CHEMBL1629481, “A regio- and stereoselective 1,3-dipolar cycloaddition for the synthesis of novel spiro-pyrrolothiazolyloxindoles and their antitubercular evaluation” (2010).)
